Common to all, as to test: DTP human tumour cell line panel, 48 h
Test [1] concerns UO-31.
The test system of test [2] is NCI-H522.
The subject of test [3] is OVCAR-3.
Test [4] relates to UACC-257.
Test [5] deals with ACHN.
Test [6] has as its system NCI-H23.
Test [7] has as its system A498.
The test system of test [8] is SK-MEL-5.
Test [9] deals with UACC-62.
Test [10] relates to HOP-92.
Test [11] relates to SF-268.
Test [12] has as its system SW-620.
Test [13] concerns SR.
In test [14] the test system is LOX IMVI.
In test [15] the test system is BT-549.
Test [16] relates to 786-0.
Test [17] has as its system NCI-H460.
Test [18] relates to Hs-578T.
Test [19] has as its system RXF 393.
The test system of test [20] is K562.

Structures are written as SMILES. Where “and” joins values, the source holds several entries; their conditions need not be identical. Equal values may be shown once.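 96-well plates; 48 h exposure; 5 concentrations. Endpoints by linear interpolation between flanking doses. Not reached: highest tested concentration assigned. GI50 marks 50% less growth.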 Calls of active or inactive are those of the source. Rule as the data show it: active = GI50 up to about 1.1 µM and inactive = higher.

In general, GI50 refers to the concentration giving 50% growth inhibition.

Take `CC(=O)NNc1nc(C)c(C(=O)/C=C/C=C/c2ccccc2)s1`: the GI50 in test [1] was > 100 µM (inactive); in [2] it was 61.9 µM (inactive); in [3] it was 52.2 µM (inactive); in [4], 66.7 µM (inactive); in test [5], > 100 µM (inactive); in [6] it was > 100 µM (inactive). Besides, the GI50 in test [7], in [8], in test [9], in test [10], in test [11] and in test [12] was > 100 µM (inactive) throughout. The GI50 in [13] is 80.9 µM (inactive); in [14], > 100 µM (inactive); in test [15], > 100 µM (inactive); in test [16] it was 62.7 µM (inactive); in test [17], > 100 µM (inactive); in test [18], > 100 µM (inactive).
With `Oc1nc(S)nc2nc3c4cccnc4c4ccccc4c3nc12`, the GI50 is > 100 µM (inactive) in test [1]; 86.3 µM (inactive) in [2]; > 100 µM (inactive) in test [3]; > 100 µM (inactive) in test [4]; > 100 µM (inactive) in [5]; 49.8 µM (inactive) in test [19]. In addition, the GI50 in test [6], in test [7], in test [8], in test [9], in [10] and in test [11] was > 100 µM (inactive) each time. Also, the GI50 was > 100 µM (inactive) in test [12]; 50.4 µM (inactive) in test [13]; > 100 µM (inactive) in test [15]; > 100 µM (inactive) in test [16]; 57.3 µM (inactive) in test [17]; > 100 µM (inactive) in test [18].
In the case of `CCOC(=O)c1c(SCCO)n(-c2ccccc2)c(=S)n(-c2ccccc2)c1=O`, the GI50 in test [1], in [20], in test [2], in test [3], in test [4] and in test [5] was > 100 µM (inactive) in each case. Besides, the GI50 in test [6], in test [8], in [9], in [10], in test [11] and in test [12] was > 100 µM (inactive) throughout. Further, the GI50 in test [13], in [14], in [15], in test [16], in test [17] and in [18] was > 100 µM (inactive) in each case.
For the compound `Cc1cc(C)c(N)c(CO)c1`, the GI50 in test [1] is > 100 µM (inactive) and 97.1 µM (inactive); in [20] it was 59.8 µM (inactive) and 67.5 µM (inactive); in [3], 32.7 µM (inactive) and 24.4 µM (inactive); in [4] it was 45.3 µM (inactive) and 58.5 µM (inactive); in test [5] it was > 100 µM (inactive); in test [6], > 100 µM (inactive). In addition, the GI50 in test [8] was > 100 µM (inactive); in test [9], 22.8 µM (inactive) and 13.2 µM (inactive); in [10], > 59.2 µM (inactive); in [11], > 100 µM (inactive); in test [12] it was > 88.3 µM (inactive) and 95.3 µM (inactive); in [13] it was > 100 µM (inactive). The GI50 in [14] was > 100 µM (inactive); in test [15] it was > 100 µM (inactive); in test [16], > 100 µM (inactive); in test [17] it was 46.7 µM (inactive) and 34 µM (inactive); in test [18], > 100 µM (inactive).
Regarding `CC1=NC(=Cc2ccc(O)cc2)C(=O)N1n1c(-c2ccccc2)nc2ccccc2c1=O`, the GI50 in [1], in test [20], in test [2], in test [4], in [5] and in test [6] was > 100 µM (inactive) in each case. Further, the GI50 in [7], in test [8], in test [9], in [11], in test [12] and in [13] was > 100 µM (inactive) each time. The GI50 in test [14], in test [15], in test [16], in [17] and in test [18] was > 100 µM (inactive) each time.
On to `Cc1ccc(/N=N/c2cc(=O)[nH]c(=O)[nH]2)cc1C`, for which the GI50 in test [1] is 17.9 µM (inactive); in test [20], 2.79 µM (inactive); in [3], 1.94 µM (inactive); in [4] it was 13.7 µM (inactive); in test [5], 11 µM (inactive); in test [19], 5.04 µM (inactive). Besides, the GI50 is 18.4 µM (inactive) in test [7]; 15.8 µM (inactive) in test [8]; 16.4 µM (inactive) in test [10]; 19.8 µM (inactive) in [11]; 4.03 µM (inactive) in test [12]; 3.6 µM (inactive) in test [13]. Moreover, the GI50 in [14] was 1.71 µM (inactive); in [15] it was 13.7 µM (inactive); in test [16] it was 2.82 µM (inactive); in [17], 17.2 µM (inactive); in test [18] it was > 10 µM (inactive).
As to `CCCNC(=O)CCC(C)[C@H]1CCC2C3C(C[C@H](OC(C)=O)[C@@]21C)[C@@]1(C)CCC2(C[C@H]1C[C@H]3OC(C)=O)OOC1(CCCCC1)OO2` (stereo partly drawn), the GI50 in test [1] is 0.0893 µM (active); in test [20] it was 4.05 µM (inactive); in test [2], 0.473 µM (active); in test [3], 1.87 µM (inactive); in test [4], 5.3 µM (inactive); in [5], 1.24 µM (inactive). The GI50 in [19] was 3.24 µM (inactive); in test [6], 1.12 µM (inactive); in [7], 33.7 µM (inactive); in test [8], 2.46 µM (inactive); in [9], 2.01 µM (inactive); in test [11], 2.02 µM (inactive). The GI50 was 4.58 µM (inactive) in test [12]; 1.32 µM (inactive) in test [13]; 1.84 µM (inactive) in test [14]; 2.55 µM (inactive) in test [15]; 2.31 µM (inactive) in test [16]; 1.67 µM (inactive) in test [17]. Further, the GI50 in test [18] was 7.33 µM (inactive).
Turning to `CCN(CC)CCNc1ccc2ncn3c4c(OC)ccc(O)c4c(=O)c1c23`, the GI50 in [1] was 33.7 µM (inactive); in test [20], 8.13 µM (inactive); in [2] it was 1.41 µM (inactive); in test [3], 31.2 µM (inactive); in [4], > 100 µM (inactive); in test [5], 5.94 µM (inactive). In addition, the GI50 in [19] was 5.85 µM (inactive); in test [6], 21.8 µM (inactive); in test [7], 10 µM (inactive); in test [8] it was 9.51 µM (inactive); in test [9] it was 35.7 µM (inactive); in test [10], 2.74 µM (inactive). Moreover, the GI50 is 6.49 µM (inactive) in test [11]; 3.09 µM (inactive) in test [12]; 1.63 µM (inactive) in [13]; 37.3 µM (inactive) in [15]; 8.93 µM (inactive) in [16]; 0.764 µM (active) in [17]. In [18], the GI50 is 92.5 µM (inactive).

These data come from ChEMBL document CHEMBL1201862, “PubChem BioAssay data set” (2004).
